From patent publication US7632814B2, “HYD1 peptides as anti-cancer agents” (University of South Florida, priority 2006, dated 2009)
Where no end group is shown, it is not given here. [ ]: non-standard residue; d: D form. 5(6)‑FAM = 5(6)-carboxyfluorescein

What was measured:
β1 integrin = target: T1, β1 integrin (Homo sapiens, UniProt P05556); experiment: Binding of peptide to the cell surface
T1 construct: endogenous in cells
From the text: Another aspect of the invention concerns a method of identifying modulators of peptide binding (a screen for molecules that displace peptide binding). Agents that are identified as being capable of competing with the HYD1 peptides of the invention for binding to β1 integrin may have utility as cytotoxic agents for research or therapy (e.g., for cancer treatment). The method comprising providing a candidate agent (such as a chemical compound, antibody, nucleic acid, or peptide); and determining whether the agent inhibits (e.g., disrupts, prevents, or interferes with), the ability of a HYD1 peptide of the invention (HYD1 or a fragment or variant thereof) to bind to β1 integrin on a cell surface (e.g., cancer cell surface) and/or inhibit β1 integrin mediated adhesion, in vitro or in vivo (e.g., in an animal model). Preferably, the cell is a cancer cell such as a myeloma cell or a cell of other cancer types (see, for example Table 1). Preferably, the peptide is labeled with a detectable moiety (e.g., a fluorescent tag, such as […]) to facilitate the determining step. Examples of controls that may be utilized in carrying out the screening method include, but are not limited to, unlabeled HYD1 peptides (HYD1, or a fragment or variant thereof); scrambled peptides (such as HYD1S); β1 integrin blocking antibody; and non-specific surface antigen binding antibody (such as CD138 for myeloma cells). Advantageously, using the screening assay, labeled HYD1 or fragments or variants thereof, can be used to screen candidates such as small molecules, on natural product libraries, in a rapid, high-throughput fashion. […] Fluorescence polarization (FP) analysis can be used to screen small molecule or natural product libraries for discovery of novel compounds that mimic the specific binding and potentially the biological activity of HYD1. The FP assay is based on the extent of depolarization of the free versus bond peptide, which can be accurately measured on commercially available FP plate readers. […] In summary, a high throughput screen (HTS) can be used to bind small molecules prior to the addition of an HYD1 probe and molecules of interest can be identified by displacement of bond peptide, with a corresponding increase in unbound peptide by FP analysis. An analogous high-throughput binding assay based on fluorescence polarization, which allows screening for small molecules that bind to the STAT3 SH2 domain, is described in Schust J. and Berg T., Anal Biochem., 2004 Jul. 1; 330(1):114-8. […]

Myeloma cells = experiment: Apoptotic activity of HYD1 variants in myeloma cells (cell line not stated); type: cell-based
Procedure: Myeloma cells were plated at a density of 400,000 cells per ml in a 24 well plate. Cells were treated with the indicated dose of the peptide for 24 hours. Following 24 hrs of peptide exposure, apoptotic cells were detected using Annexin V staining and FACS analysis. Ten thousand events were analyzed by flow cytometry (Becton Dickinson, San Jose, Calif.). Experiments were performed in triplicate and repeated twice. Shown is a representative figure.

[1] = system: phospho Pyk2 in H929 cells; experiment: Phospho-Pyk2 levels in suspension culture (immunoblot); type: cell-based; settings: H929 cells cultured in suspension
From the text: Based upon the observation that HYD1 increased melphalan induced apoptosis in suspension cultures, whether treatment with HYD1 inhibits phosphorylation of a downstream mediator of β1 integrin signaling (Pyk2) in suspension cultures was investigated.

H929 cells [2] = experiment: Electron microscopy of double membrane vesicles; type: cell-based; settings: 100 μg/ml, 4 hours
Procedure: H929 cells were treated with either 100 µg/ml HYD1 (FIG. 24A) or HYD1S (FIG. 24B) for four hours and processed for electron microscopy as described in materials and methods.
Electron Microscopy. H929 cells were treated for four hours with either 100 μg/ml HYD1 or HYD1S. After peptide treatment, the samples were fixed overnight in 2.5% glutaraldehyde in 0.1M phosphate buffer, pH 7.2 overnight at four degrees. Following fixation, the cells were rinsed 2 times for 10 minutes each in 0.1M phosphate buffer, pH 7.2, at 4° C. The cells were loosely pelleted in microcentrifuge tubes at 500×G for 3 minutes. The buffer was removed from the cells and replaced with 1% osmium tetroxide in the above buffer at 4° C. The cells were resuspended and post-fixed for 1 hour, then loosely pelleted and rinsed in the above buffer. This step was repeated for a total of 3 rinses of 5 minutes each, with the cells being resuspended after each buffer change. Cells were dehydrated through a graded series of acetone, 30%, 50%, 70%, and 95% acetone in water, 5 minutes per change with loose pelleting at 750×G for 5 minutes, then resuspension for each step. The cells were then dehydrated through three changes of 100% acetone, 10 minutes per change, with a 5 minute pelleting step at 1000×G, followed by resuspension in each step. […]

H929 cells [3] = experiment: Lysosensor staining of acidic vesicles, confocal microscopy; type: cell-based; settings: 100 μg/ml, six hours, compared to control cells
Procedure: Lysosensor green was used to detect acidic compartments and live cell imaging was performed by confocal microscopy. Shown is a representative figure. The experiment was repeated three independent times and similar results were obtained.
Lysosensor staining. 35 mm glass bottom microwell dishes were incubated with 10 ul Cell-tak (BD biosciences San Jose, Calif.) and 290 ul 0.5M sodium bicarbonate (Sigma) for 30 minutes. The plates were aspirated and 200,000H929 or 8226 cells were plated. Cells were then treated with either water (VC), 100 μg/ml HYD1 or 100 μg/ml HYD1S for 6 hours. After the 6-hour incubation, the plates were aspirated and washed once with warm media. Media containing 1 μM lysosensor DND-189 (Molecular Probes, Carlsbad Calif.) and 20 μM Hoechst 33342 (Molecular Probes) was added and samples were incubated for an additional 30 minutes. Samples were analyzed with a Leica DMI6000 inverted TCS SP5 confocal scanner (Leica Microsystems, Germany). 405 Diode and Argon laser lines were applied to excite the samples and tunable filters were used to minimize the crosstalk between fluorochromes. Gain, offset, and pinhole setting were identical for all samples within the treatment group. Image sections at […] were captured with photomultiplier detectors and maximum projections were prepared with the LAS AF software version 1.6.0 build 1016 (Leica Microsystems, Germany).

8226 cells = experiment: HS-5 co-culture (SF+A) model of drug resistance, melphalan apoptosis; type: cell-based; settings: 8226 cells co-cultured with HS-5, 50 μg/ml peptide, with melphalan
Procedure: (§1) Co-culture model. HS-5/GFP cells were plated at a density of 500,000 cells per ml and incubated overnight. Myeloma cells were incubated with vehicle control (water), 50 μg/ml HYD1 or 50 μg/ml HYD1S 30 minutes prior to the addition of myeloma cells (400,000 cell/ml) to either control plates or plates containing HS-5 cells. Myeloma cells were incubated with HS-5 cells for three hours prior to the addition of melphalan. Apoptotic cells were measured in GFP negative myeloma cells, by annexin PE staining and FACS analysis (n=9). ANOVO was performed to determine significance between conditions.
(§2) Briefly, 8226 myeloma cells were pre-incubated with varying concentrations of either HYD1 or the scrambled HYD1S peptide for 30 minutes prior to allowing cells to attach to FN for two hours. Following two hours of cell adhesion, the amount of cells adherent to FN was measured. The next objective was to determine whether treatment of tumor cells with HYD1 results in potentiation of melphalan induced cell death in the BMS co-culture model (SF+A). […] For these studies, the HYD1 and HYD1S were pre-incubated with the […] for 30 minutes, and then cells and culture media containing the peptide were placed into the S-5 culture dish. Myeloma cells were co-cultured for an additional 3 hours with HS-5 cells before the addition of melphalan. Twenty-four hours after drug treatment, apoptosis was measured by Annexin V-PE positive events by FACS analysis. The HS-5 cells constitutively express GFP and thus it is possible to gate GFP negative cells only (myeloma cells) for the apoptotic analysis.

H929 cells [4] = experiment: as above; type: cell-based; settings: H929 cells co-cultured with HS-5, 50 μg/ml peptide, with melphalan
Procedure: as §1, §2

[5] = system: DU145 prostate cancer cells; settings: DeRoock et al. 2001; cited from earlier work
prostate tumor cell = experiment: Cell adhesion supported by immobilized HYD1 fragments and variants; type: cell-based; settings: truncation and alanine substitution of HYD1
From the text: Defining the minimal region of HYD1 necessary to potentiate drug-induced apoptosis in suspension and adherent cultures is of interest. Below is a study to determine the minimal HYD1 sequence required to block prostate tumor cell migration. Similar studies as those outlined below and using the same peptide sequences will be used to determine the minimal amino acid sequence required for potentiation of drug induced apoptosis.
To determine the minimal element of immobilized HYD1 required for cell adhesion, the N and C terminus was systematically truncated one amino acid at a time (FIG. 14A). Most of the adhesion activity was retained with the deletion of lys-glycine from the C-terminus. However, the peptide no longer supported cell adhesion if the next residue, tryptophan was removed. Deletion of the N-terminus on the other hand, was tolerated very well until the third residue, methionine, was removed, leading to gradual decrease in cell binding.

T1 sequence (P05556 21-798): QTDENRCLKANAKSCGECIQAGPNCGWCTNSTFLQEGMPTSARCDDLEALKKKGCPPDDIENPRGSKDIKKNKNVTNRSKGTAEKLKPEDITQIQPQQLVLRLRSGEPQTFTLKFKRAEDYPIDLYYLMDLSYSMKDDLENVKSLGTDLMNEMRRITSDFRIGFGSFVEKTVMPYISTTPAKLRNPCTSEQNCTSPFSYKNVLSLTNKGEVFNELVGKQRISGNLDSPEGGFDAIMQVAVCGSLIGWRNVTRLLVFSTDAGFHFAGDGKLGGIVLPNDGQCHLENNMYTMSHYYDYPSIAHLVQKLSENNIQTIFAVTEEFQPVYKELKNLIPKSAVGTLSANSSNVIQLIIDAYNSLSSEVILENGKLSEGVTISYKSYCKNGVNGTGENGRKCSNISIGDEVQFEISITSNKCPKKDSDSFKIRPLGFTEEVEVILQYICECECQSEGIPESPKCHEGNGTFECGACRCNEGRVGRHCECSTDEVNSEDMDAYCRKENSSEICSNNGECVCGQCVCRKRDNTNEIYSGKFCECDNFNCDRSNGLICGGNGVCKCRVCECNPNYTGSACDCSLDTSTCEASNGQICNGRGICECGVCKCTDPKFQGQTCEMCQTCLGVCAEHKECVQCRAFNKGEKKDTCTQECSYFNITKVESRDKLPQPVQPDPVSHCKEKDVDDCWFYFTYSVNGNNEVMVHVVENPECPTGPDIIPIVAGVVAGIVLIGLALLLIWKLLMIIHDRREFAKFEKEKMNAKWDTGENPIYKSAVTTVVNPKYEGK

FAM-HYD1: HYD1 with R=5(6)-FAM (carboxyfluorescein) ({5(6)‑FAM}-[dK][dI][dK][dM][dV][dI][dS][dW][dK]G)
binding to the cell surface (β1 integrin): binds to the cell surface
blocking of cell surface binding by β1 integrin antibody (β1 integrin): can be blocked
biological activity of conjugated HYD1 (Myeloma cells): retains biological activity

wiksmkivkg ([dW][dI][dK][dS][dM][dK][dI][dV][dK]G) [HYD1S, reference compound]
phospho Pyk2 levels [1]: but not HYD1S reduces phospho Pyk2 levels
formation of double membranes / vesicles (EM) (H929 cells [2]): small vesicles fused with lysosomes were observed
number and size of acidic vesicles (H929 cells [3]): large vesicles noted with HYD1 treatment in both the lysosensor staining and EM analysis were not detected
potentiation of melphalan-induced apoptosis in the SF+A model (8226 cells): but not the scrambled peptide (HYD1S) potentiates melphalan-induced cell death
potentiation of melphalan-induced apoptosis in the SF+A model (H929 cells [4]): but not the scrambled peptide (HYD1S) potentiates melphalan-induced cell death
inhibition of cell adhesion to extracellular matrixes [5]: not to inhibit cell adhesion

ikmvisw (IKMVISW; HYD1 fragment)
cell adhesion supported by immobilized peptide (prostate tumor cell): retained full cell adhesion activities
